Assay results taken from patent publication US5880076A, “Compositions comprising glycacarbamate and glycaurea compounds” (Lever Brothers Company, Division of Conopco, Inc., priority 1997, dated 1999).
Values belong to the compound of their own block, whether it stands above or below them.

Legend:
[1] = Viscosity Modification of Sodium Lauryl Sulfate prototype detergent compositions; format: physicochemical; conditions: for Appearance (viscosity) / Viscosity Increase: 15.0% sodium lauryl sulfate; for Viscosity Increase: 22° C.
Procedure: The prototype detergent compositions are as follows:
(§1) Detergent Compositions Comprising Sodium
(§2) Lauryl Sulfate and Glycacarbamate Compounds
N-Dodecyl D-Glucocarbamate
2.0-7.0% Foam Stabilizer/Thickener
(§3) 2.0% Viscosity Cobuilder
(§4) Lauryl Sulfate and Glycaurea Compounds
(§5) The above formulations were prepared by admixing the above ingredients in listed order and heating the mixture to about 80° C. with rapid stirring. The mixture was then cooled to about 40° C., placed in a clear jar and stored at room temperature.
It is well known that the viscosity of a liquid composition comprision of anionic surfactant can be modified by the addition of inorganic salts, such as sodium chloride. However, in the absence of an organic modifier, high levels of salt may be necessary to achieve the required viscosity which may lead to problems of storage at cold temperature or even salting our certain ingrediets. In practice, however, the viscosity of a liquid compositionis modified by the simultaneous addition of thickener and small amounts of inorganic salt (viscosity cobuilder). The combined effect is greater than either one alone. The viscosity of the above prototype detergent compositions comprising various amounts of glycacarbamate/urea compound are as follows: […]

[2] = Viscosity Enhancement/Foam Stabilization (Brookfield Digital Viscometer); conditions: for Viscosity (Centipoise): 22° C.
[3] = Surface Tension Reduction; format: physicochemical
From the text: An important characteristic feature that surfactants have is the tendency for them to absorb at the water/air interface in an oriented manner, thereby altering the interfacial free energy of that surface. The surface free energy per unit area or surface tension (γ), is a measure of this work and may be considered as the minimum amount of work required to bring sufficient surfactant molecules to the surface.

[4] = Water Solubility and Krafft Point (0.1% solution in water, 40° C.)
From the text: The temperature at which a surfactant forms micelles instead of precipitates is referred to as the Krafft point (Tk), and at or below this temperature the solubility of a surfactant becomes equal to its CMC (numerical value at which micelles are formed).

[5] = Critical Micelle Concentration (micelle formation); format: physicochemical
From the text: The critical micelle concentration (CMC) is defined as the concentration at which a surfactant forms micelles in aqueous solution. […] A necessary and sufficient condition for CMC formation and surface tension reduction is the presence of both hydrophilic and hydrophobic functional groups. The hydrophilic portion provides strong interaction between the surfactant at the interface and with the surrounding water phase. The hydrophobic portion provides spontaneous adsorption of the surfactant at the interface and strong interaction with the adjacent air phase. If any of these functions are not performed, then CMC formation and surface tension reduction will not occur. For significant surface activity, a properly balanced hydrophilic and hydrophobic character is essential.

[6] = Flow aids: water uptake and appearance of intimate admixtures; format: physicochemical; conditions: for handling and flowing characteristics (in words): intimate admixtures with ODS, SCMOS, CP-5 or CP-7; for Appearance (flow) / % H2O Uptake: 25° C., 65% R.H.; for % H2O Uptake: based on builder
From the text: It is known in the are that certain ingredients are hygroscopic in nature and liquify after exposure to moisture after a few days. […] Samples were removed periodically, weighed and returned to R. H. chamber. Percent water uptake was based on the amound of builder present. % H2 O Uptake=grams of water absorbed/grams of builder×100 Identical mixtures of ODS, SCMOS, CP-5 or CP-7 and methyl α-D-glucose-6-O-monolaurate (c12 Mgluc), dodecyl β-D-glucopyranoside (C12 Gluc), dodecyl β-D-maltoside (C12 Malt), D-glucose or D-sorbitol were also prepared and are used for comparison. When the comparative sugar surfactant of monosacchardie are used, percent water uptake was based on the amount of saccharide present. % H2 O Uptake=grams of water absorbed/grams of saccharide×100

[7] = Clarity Enhancement of prototype detergent compositions; format: physicochemical; conditions: detergent formulation
Procedure: The formulations were placed in a clear jar and stored for 1 month. The prototype detergent compositions are as follows:
as §1, §2
N-Coconut D-Glucocarbamate
0.5-4.0% Foam Stabilizer/Thickener
as §4, §5
For a clear detergent formulation to be successful it must have good shelf life and should not become turbid or produce sedimentation upon standing.

[8] = Water solubility and turbidity in aqueous personal product and detergent compositions (statement)
[9] = Pearlescent/Suspending Action in prototype personal product compositions; format: physicochemical; conditions: for Appearance (pearlescence/suspending): 15.0% sodium lauryl sulfate, room temperature, 1 month
Procedure: The formulations were placed in a clear jar and stored for 1 month. The prototype personal product compositions are as follows:
Personal Product Compositions Comprising Sodium
as §2
N-Tallow D-Glucocarbamate
0.5-4.0% Pearlescent/Suspending
as §3, §4, §5
For a pearlecent personal product formulation to be successful it must have good shelf life and should not separate upon standing.

Surface tension reduction (γ) at 40° C. ([3]; 40° C.): Yes
H2O Solubility at 40° C. ([4]; 40° C.): Yes
Krafft point (Tk) ([4]; 40° C.): Below Tk
CMC at 40° C. (micelle formation) ([5]; 40° C.): Yes
Compound: CCCCCCCCCCN1C[C@H](O)[C@H]([C@H](O)[C@H](O)CO)OC1=O [N-Decyl D-Glucocarbamate]

Surface tension reduction (γ) at 40° C. ([3]; 40° C.): Yes
H2O Solubility at 40° C. ([4]; 40° C.): Yes
Krafft point (Tk) ([4]; 40° C.): Below Tk
CMC at 40° C. (micelle formation) ([5]; 40° C.): Yes
Compound: CCCCCCCCCCN(C[C@H](O)[C@@H](O)[C@H](O)[C@H](O)CO)C(N)=O [N-Decyl D-Glucourea]

Surface tension reduction (γ) at 40° C. ([3]; 40° C.): No
H2O Solubility at 40° C. ([4]; 40° C.): No
Krafft point (Tk) ([4]; 40° C.): Above Tk
H2O Solubility at 40° C. ([4]; 40° C., listed as E): insoluble in water
CMC at 40° C. (micelle formation) ([5]; 40° C.): No
CMC at 40° C. (micelle formation) ([5]; 40° C., listed as E): do not form micelles
Compound: CCCCCCCCCCCCCCCCN1C[C@H](O)[C@H]([C@H](O)[C@H](O)CO)OC1=O [N-Hexadecyl D-Glucocarbamate]
Surface tension reduction (γ) at 40° C. ([3]; 40° C., listed as E): do not significantly reduce the surface tension of water

Surface tension reduction (γ) at 40° C. ([3]; 40° C.): No
H2O Solubility at 40° C. ([4]; 40° C.): No
Krafft point (Tk) ([4]; 40° C.): Above Tk
CMC at 40° C. (micelle formation) ([5]; 40° C.): No
Appearance (pearlescence/suspending) ([9]; 0.5% opacifier): Pearlescent/Suspending Action
Appearance (pearlescence/suspending) ([9]; 1.0% opacifier): Pearlescent/Suspending Action
Appearance (pearlescence/suspending) ([9]; 2.0% opacifier): Pearlescent/Suspending Action
Appearance (pearlescence/suspending) ([9]; 3.0% opacifier): Pearlescent/Suspending Action
Appearance (pearlescence/suspending) ([9]; 4.0% opacifier): Pearlescent/Suspending Action
pearlescence (in words) ([9]; sodium lauryl sulfate compositions): excellent pearlescence
Compound: CCCCCCCCCCCCCCCCN(C[C@H](O)[C@@H](O)[C@H](O)[C@H](O)CO)C(N)=O [N-Hexadecyl D-Glucourea]
handling and flowing characteristics (in words) [6]: improved the handling and flowing characteristics

Surface tension reduction (γ) at 40° C. ([3]; with slight heating): Yes
H2O Solubility at 40° C. ([4]; with slight heating): Yes
Krafft point (Tk) ([4]; with slight heating): Below Tk
CMC at 40° C. (micelle formation) ([5]; with slight heating): Yes
Compound: CCCCCCCCCCCCCCN1C[C@H](O)[C@H]([C@H](O)[C@H](O)CO)OC1=O [N-Tetradecyl D-Glucocarbamate]
handling and flowing characteristics (in words) [6]: improved the handling and flowing characteristics

Appearance (flow) ([6]; 9 days): Sticky Paste
% H2O Uptake ([6]; 9 days): 38%
Compound: tetrasodium sulfocarboxymethyloxysuccinate [Na4 SCMOS, reference compound]

The remaining lines, values behind:

Compound: O=C[C@H](O)[C@@H](O)[C@H](O)[C@H](O)CO [D-Glucose, D-glucose, reference compound]
Appearance (viscosity) ([1]; 2.0% thickener): Purable Liquid
Viscosity Increase ([1]; 2.0% thickener): No
Appearance (viscosity) ([1]; 4.0% thickener): Purable Liquid
Viscosity Increase ([1]; 4.0% thickener): No
Appearance (viscosity) ([1]; 7.0% thickener): Purable Liquid
Viscosity Increase ([1]; 7.0% thickener): No
Foam Stability ([2]; 4.0% thickener): No
Viscosity (Centipoise) ([2]; 4.0% thickener): 27 Centipoise

Compound: CCCCCCCCCCCC(=O)N(CCO)CCO [Lauramide DEA, lauric diethanolamide, reference compound]
Foam Stability ([2]; 4.0% thickener): Yes
Viscosity (Centipoise) ([2]; 4.0% thickener): 2376 Centipoise

Compound: CCCCCCCCCCCCN1C[C@H](O)[C@H]([C@H](O)[C@H](O)CO)OC1=O [N-Dodecyl D-Glucocarbamate]
Appearance (viscosity) ([1]; 2.0% thickener): Slightly Viscous
Viscosity Increase ([1]; 2.0% thickener): Yes
Appearance (viscosity) ([1]; 4.0% thickener): Viscous
Viscosity Increase ([1]; 4.0% thickener): Yes
Appearance (viscosity) ([1]; 7.0% thickener): Very Viscous
Viscosity Increase ([1]; 7.0% thickener): Yes
viscosity increase (in words) ([1]; compared with D-glucose): increases the viscosity of that composition more effectively than D-glucose
Surface tension reduction (γ) at 40° C. ([3]; 40° C.): Yes
handling and flowing characteristics (in words) [6]: improved the handling and flowing characteristics
H2O Solubility at 40° C. ([4]; 40° C.): Yes
Krafft point (Tk) ([4]; 40° C.): Below Tk
CMC at 40° C. (micelle formation) ([5]; 40° C.): Yes
clarity (in words) [7]: clear without sedimentation
Foam Stability ([2]; 4.0% thickener): Yes
viscosity increase from normal viscosity ([2]; 4.0% thickener): 99-104 times
Viscosity (Centipoise) ([2]; 4.0% thickener): 2176 Centipoise
Foam Stability ([2]; 4.0% thickener, listed as N-dodecyl D-glucocarbamate): stabilize foam
viscosity enhancement and foam stabilization (comparison in words) ([2]; compared with lauramide DEA, cocoamide MEA, Neodol 91-6 and D-glucose): enhance viscosity and stabilze foam compartively to lauramide diethanolamine (DEA), but better than cocoamide menoethanolamine (MEA), Neodol 91-6 (C9 -C11 alcohol ethoxylate with 6 moles of ethylene oxide) and D-glucose

Compound: CCCCCCCCCCCCN1C[C@H](O)[C@H]([C@H](O[C@H]2O[C@H](CO)[C@@H](O)[C@H](O)[C@H]2O)[C@H](O)CO)OC1=O [N-Dodecyl D-Maltocarbamate]
Surface tension reduction (γ) at 40° C. ([3]; 40° C.): Yes
water solubility ([8]; compared to other known glycacarbamate and glycaurea compounds): enhanced water solubility
turbidity ([8]; in aqueous personal product and detergent compositions): less turbid
H2O Solubility at 40° C. ([4]; 40° C.): Yes
Krafft point (Tk) ([4]; 40° C.): Below Tk
CMC at 40° C. (micelle formation) ([5]; 40° C.): Yes

Compound: CCCCCCCCCCCCCCCCCCN1C[C@H](O)[C@H]([C@H](O)[C@H](O)CO)OC1=O [N-Octadecyl D-Glucocarbamate]
Surface tension reduction (γ) at 40° C. ([3]; 40° C.): No
Surface tension reduction (γ) at 40° C. ([3]; 40° C., listed as F): do not significantly reduce the surface tension of water
H2O Solubility at 40° C. ([4]; 40° C.): No
Krafft point (Tk) ([4]; 40° C.): Above Tk
H2O Solubility at 40° C. ([4]; 40° C., listed as F): insoluble in water
CMC at 40° C. (micelle formation) ([5]; 40° C.): No
CMC at 40° C. (micelle formation) ([5]; 40° C., listed as F): do not form micelles

Compound: CCCCCCCCN1C[C@H](O)[C@H]([C@H](O)[C@H](O)CO)OC1=O [N-Octyl D-Glucocarbamate]
Surface tension reduction (γ) at 40° C. ([3]; 40° C.): Yes
H2O Solubility at 40° C. ([4]; 40° C.): Yes
Krafft point (Tk) ([4]; 40° C.): Below Tk
CMC at 40° C. (micelle formation) ([5]; 40° C.): Yes

Compound: O=C([O-])CC(OC(CC(=O)[O-])C(=O)[O-])C(=O)[O-].[Na+].[Na+].[Na+].[Na+] (centres unmarked) [Na4 ODS, tetrasodium oxydisuccinate, reference compound]
Appearance (flow) ([6]; 4 days): Liquid
% H2O Uptake ([6]; 4 days): 59%
